Calls of active or inactive are those of the source. Cut-off read from the data, not from the text of the source, for most assays here: actives have a measured Kd and inactives only a lower limit.
What was measured:
[1] = biological target: Citron Rho-interacting kinase (Homo sapiens, UniProt O14578)
[2] = biological target: T1, Peroxisomal acyl-coenzyme A oxidase 3 (Homo sapiens, UniProt O15254)
T1 sequence (O15254 whole entry): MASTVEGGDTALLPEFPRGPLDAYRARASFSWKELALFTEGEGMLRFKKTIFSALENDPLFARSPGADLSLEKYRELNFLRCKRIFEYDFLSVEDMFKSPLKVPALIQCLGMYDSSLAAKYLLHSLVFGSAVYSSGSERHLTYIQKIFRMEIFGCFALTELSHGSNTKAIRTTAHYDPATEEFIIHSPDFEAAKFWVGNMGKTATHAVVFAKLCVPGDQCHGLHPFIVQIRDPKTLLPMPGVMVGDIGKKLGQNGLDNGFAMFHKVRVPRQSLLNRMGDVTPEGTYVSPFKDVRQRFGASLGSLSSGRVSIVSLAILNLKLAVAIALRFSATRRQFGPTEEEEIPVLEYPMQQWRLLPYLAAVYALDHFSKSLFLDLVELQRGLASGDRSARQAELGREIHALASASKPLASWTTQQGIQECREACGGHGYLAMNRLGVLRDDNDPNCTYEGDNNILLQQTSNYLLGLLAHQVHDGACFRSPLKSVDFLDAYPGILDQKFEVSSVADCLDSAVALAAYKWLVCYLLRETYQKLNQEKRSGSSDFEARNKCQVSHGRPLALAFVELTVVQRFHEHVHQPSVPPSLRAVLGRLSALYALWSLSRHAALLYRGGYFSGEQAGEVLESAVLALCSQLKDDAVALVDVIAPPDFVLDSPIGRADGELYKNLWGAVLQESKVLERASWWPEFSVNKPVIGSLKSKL

[3] = biological target: T2, Serine/threonine-protein kinase ICK (Homo sapiens, UniProt Q9UPZ9)
T2 sequence (Q9UPZ9 whole entry): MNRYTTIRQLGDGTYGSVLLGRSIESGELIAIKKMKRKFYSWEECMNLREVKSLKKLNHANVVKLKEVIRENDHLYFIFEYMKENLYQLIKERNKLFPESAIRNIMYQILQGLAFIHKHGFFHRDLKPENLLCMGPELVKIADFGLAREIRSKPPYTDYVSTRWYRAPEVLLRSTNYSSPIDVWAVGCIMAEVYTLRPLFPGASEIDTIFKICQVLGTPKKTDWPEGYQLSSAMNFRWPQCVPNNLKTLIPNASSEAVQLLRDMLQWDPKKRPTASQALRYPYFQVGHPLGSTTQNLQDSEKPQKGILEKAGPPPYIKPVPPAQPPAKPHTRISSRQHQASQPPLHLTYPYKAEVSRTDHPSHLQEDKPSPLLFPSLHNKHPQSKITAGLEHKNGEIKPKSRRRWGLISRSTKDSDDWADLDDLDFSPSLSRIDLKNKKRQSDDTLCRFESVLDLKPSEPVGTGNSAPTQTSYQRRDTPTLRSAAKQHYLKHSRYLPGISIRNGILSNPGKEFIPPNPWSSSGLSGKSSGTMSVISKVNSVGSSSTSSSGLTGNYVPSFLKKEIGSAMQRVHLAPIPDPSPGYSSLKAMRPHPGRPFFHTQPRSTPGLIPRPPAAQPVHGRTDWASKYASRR

[4] = biological target: 26S proteasome regulatory subunit 6B (Homo sapiens, UniProt P43686)
Midasin = Midasin (Homo sapiens, UniProt Q9NU22)
[5] = biological target: T3, Interleukin-1 receptor-associated kinase 4 (Homo sapiens, UniProt Q9NWZ3)
T3 sequence (Q9NWZ3 whole entry): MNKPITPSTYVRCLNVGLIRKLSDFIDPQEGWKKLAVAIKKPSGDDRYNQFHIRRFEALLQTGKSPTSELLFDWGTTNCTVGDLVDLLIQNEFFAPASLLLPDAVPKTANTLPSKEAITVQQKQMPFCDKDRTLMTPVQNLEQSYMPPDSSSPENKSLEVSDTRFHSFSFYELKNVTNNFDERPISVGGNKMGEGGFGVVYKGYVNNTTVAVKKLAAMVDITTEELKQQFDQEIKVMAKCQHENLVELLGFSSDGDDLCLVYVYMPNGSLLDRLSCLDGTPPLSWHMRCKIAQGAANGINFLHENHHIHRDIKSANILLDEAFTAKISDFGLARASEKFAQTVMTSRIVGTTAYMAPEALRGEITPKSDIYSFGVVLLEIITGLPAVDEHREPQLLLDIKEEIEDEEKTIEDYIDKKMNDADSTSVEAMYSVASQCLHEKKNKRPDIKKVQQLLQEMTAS

[6] = biological target: Epithelial discoidin domain-containing receptor 1 (Homo sapiens, UniProt Q08345)
[7] = biological target: Mitogen-activated protein kinase kinase kinase kinase 5 (Homo sapiens, UniProt Q9Y4K4)
[8] = biological target: Mitogen-activated protein kinase kinase kinase kinase 4 (Homo sapiens, UniProt O95819)
[9] = biological target: Cyclin-dependent kinase 7 (Homo sapiens, UniProt P50613)
[10] = biological target: T4, cGMP-dependent protein kinase 1 (Homo sapiens, UniProt Q13976)
T4 sequence (Q13976 whole entry): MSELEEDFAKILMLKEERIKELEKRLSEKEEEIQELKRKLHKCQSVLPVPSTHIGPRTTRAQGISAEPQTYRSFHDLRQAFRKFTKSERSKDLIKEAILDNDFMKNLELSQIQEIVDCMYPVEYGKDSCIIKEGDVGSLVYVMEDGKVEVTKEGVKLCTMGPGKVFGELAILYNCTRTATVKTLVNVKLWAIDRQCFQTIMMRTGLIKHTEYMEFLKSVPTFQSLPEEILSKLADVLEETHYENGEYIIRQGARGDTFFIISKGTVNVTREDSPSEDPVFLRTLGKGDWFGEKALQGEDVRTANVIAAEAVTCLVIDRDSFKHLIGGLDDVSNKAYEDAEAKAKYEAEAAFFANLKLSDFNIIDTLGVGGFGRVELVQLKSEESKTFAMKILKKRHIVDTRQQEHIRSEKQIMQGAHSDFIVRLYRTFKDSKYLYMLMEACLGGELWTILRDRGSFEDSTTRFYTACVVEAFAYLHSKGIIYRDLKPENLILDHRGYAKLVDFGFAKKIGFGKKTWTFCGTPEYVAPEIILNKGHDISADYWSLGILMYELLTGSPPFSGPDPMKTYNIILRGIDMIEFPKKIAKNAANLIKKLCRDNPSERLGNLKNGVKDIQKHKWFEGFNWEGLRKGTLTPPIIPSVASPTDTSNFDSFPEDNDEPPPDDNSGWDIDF

[11] = biological target: Bone morphogenetic protein receptor type-1A (Homo sapiens, UniProt P36894)
[12] = biological target: Serine/threonine-protein kinase SIK3 (Homo sapiens, UniProt Q9Y2K2)
Note: in the data inactive means no Kd found up to 30 µM.

Chain of Cyclin-dependent kinase 7 (P50613 whole entry): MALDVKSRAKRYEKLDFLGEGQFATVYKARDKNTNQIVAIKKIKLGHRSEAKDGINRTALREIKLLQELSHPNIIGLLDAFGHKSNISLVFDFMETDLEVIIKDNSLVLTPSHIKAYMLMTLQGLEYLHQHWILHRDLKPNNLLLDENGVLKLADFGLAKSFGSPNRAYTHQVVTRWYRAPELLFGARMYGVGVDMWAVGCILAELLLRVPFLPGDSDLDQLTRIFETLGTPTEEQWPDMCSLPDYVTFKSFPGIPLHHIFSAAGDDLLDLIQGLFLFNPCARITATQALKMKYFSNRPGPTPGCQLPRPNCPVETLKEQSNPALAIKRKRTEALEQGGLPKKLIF
Chain of Mitogen-activated protein kinase kinase kinase kinase 4 (O95819 whole entry): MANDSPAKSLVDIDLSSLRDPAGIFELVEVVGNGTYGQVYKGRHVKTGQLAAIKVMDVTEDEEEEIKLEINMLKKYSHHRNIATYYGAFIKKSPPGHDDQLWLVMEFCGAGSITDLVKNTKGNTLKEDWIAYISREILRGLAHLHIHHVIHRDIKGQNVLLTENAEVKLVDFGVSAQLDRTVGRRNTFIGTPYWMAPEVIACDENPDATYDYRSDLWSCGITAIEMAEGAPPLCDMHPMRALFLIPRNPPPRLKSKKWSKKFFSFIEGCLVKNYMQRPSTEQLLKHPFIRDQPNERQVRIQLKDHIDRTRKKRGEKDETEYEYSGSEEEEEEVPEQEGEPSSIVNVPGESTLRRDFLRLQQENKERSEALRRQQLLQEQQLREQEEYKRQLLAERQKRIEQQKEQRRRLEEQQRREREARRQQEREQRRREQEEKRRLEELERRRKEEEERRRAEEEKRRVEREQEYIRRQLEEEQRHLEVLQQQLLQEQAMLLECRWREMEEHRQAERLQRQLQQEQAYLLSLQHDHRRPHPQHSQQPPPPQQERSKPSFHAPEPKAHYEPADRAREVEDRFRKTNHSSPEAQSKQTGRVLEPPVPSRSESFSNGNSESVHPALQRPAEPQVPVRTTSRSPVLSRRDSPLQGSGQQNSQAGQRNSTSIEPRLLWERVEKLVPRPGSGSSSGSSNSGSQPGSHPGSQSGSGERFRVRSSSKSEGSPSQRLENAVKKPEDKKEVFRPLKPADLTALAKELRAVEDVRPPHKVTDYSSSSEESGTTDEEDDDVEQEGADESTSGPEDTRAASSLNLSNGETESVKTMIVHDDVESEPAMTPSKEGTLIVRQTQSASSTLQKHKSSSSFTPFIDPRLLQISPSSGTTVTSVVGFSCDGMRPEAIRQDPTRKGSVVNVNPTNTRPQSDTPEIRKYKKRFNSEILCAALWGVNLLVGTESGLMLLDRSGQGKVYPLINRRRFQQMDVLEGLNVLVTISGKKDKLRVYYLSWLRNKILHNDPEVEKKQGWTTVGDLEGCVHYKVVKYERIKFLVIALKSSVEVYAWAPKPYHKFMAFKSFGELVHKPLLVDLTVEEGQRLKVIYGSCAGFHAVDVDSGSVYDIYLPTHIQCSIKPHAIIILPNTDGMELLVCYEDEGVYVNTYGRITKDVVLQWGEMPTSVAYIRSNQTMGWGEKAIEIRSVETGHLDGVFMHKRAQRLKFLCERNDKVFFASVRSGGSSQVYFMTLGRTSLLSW
Chain of Citron Rho-interacting kinase (O14578 whole entry): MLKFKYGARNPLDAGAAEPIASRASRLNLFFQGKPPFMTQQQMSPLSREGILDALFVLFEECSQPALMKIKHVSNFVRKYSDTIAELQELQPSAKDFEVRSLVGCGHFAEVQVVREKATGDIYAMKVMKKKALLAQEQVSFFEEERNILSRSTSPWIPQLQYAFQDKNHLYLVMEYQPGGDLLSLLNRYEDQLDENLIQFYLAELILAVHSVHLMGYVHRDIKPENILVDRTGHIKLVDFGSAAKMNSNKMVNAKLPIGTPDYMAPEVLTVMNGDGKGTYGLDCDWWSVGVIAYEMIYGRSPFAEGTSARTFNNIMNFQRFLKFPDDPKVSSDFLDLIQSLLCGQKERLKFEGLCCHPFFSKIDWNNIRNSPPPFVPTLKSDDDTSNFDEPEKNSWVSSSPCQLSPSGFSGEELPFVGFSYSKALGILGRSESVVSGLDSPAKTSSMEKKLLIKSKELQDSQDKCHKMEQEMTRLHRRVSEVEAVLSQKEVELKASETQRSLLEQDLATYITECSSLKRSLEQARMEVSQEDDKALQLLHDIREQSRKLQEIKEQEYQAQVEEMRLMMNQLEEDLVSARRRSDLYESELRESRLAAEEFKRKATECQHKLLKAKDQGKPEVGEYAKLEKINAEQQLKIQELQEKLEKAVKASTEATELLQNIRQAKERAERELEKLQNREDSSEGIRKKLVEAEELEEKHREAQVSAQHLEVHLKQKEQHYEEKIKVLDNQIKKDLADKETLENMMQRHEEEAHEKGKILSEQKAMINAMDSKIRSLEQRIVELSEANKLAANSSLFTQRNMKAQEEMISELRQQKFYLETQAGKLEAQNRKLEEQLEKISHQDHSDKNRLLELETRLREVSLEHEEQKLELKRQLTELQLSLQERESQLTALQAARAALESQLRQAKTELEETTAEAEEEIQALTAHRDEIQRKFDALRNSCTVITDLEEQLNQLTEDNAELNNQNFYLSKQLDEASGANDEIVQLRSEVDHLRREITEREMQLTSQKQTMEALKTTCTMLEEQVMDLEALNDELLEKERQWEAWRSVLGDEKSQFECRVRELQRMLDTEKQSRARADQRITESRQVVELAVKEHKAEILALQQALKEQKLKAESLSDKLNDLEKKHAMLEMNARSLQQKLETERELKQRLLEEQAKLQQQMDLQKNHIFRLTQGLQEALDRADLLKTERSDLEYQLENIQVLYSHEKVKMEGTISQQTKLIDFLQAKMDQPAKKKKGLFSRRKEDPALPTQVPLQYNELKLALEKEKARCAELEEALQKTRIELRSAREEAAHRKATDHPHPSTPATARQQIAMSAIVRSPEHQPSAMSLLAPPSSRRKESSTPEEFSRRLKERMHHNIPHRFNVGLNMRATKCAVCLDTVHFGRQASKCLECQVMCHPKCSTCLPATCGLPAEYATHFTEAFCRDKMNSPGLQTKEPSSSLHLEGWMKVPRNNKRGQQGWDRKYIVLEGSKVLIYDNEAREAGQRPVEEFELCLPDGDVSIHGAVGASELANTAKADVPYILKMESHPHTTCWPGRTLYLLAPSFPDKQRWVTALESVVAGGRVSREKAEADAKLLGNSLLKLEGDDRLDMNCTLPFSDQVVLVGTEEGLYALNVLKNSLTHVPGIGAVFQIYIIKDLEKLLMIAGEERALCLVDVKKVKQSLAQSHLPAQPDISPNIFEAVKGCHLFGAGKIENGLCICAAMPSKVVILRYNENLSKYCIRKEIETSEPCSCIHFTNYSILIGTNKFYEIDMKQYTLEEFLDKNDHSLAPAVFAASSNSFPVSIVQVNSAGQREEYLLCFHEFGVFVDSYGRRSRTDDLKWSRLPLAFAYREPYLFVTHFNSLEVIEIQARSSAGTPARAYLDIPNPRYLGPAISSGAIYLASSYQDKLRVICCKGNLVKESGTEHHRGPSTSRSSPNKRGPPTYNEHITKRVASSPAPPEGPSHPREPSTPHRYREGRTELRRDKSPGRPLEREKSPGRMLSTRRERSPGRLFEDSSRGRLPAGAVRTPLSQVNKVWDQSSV
Chain of 26S proteasome regulatory subunit 6B (P43686 whole entry): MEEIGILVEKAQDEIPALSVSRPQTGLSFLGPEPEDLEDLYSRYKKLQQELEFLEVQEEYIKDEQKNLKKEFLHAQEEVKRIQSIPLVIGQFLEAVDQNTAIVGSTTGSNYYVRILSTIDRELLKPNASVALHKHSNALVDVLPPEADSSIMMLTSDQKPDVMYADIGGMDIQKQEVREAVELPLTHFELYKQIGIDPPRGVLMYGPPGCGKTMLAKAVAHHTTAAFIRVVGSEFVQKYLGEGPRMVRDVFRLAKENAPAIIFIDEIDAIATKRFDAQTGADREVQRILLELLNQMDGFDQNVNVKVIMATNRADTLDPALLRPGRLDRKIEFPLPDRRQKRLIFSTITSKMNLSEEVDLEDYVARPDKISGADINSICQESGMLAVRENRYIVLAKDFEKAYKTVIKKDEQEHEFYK
Chain of Bone morphogenetic protein receptor type-1A (P36894 whole entry): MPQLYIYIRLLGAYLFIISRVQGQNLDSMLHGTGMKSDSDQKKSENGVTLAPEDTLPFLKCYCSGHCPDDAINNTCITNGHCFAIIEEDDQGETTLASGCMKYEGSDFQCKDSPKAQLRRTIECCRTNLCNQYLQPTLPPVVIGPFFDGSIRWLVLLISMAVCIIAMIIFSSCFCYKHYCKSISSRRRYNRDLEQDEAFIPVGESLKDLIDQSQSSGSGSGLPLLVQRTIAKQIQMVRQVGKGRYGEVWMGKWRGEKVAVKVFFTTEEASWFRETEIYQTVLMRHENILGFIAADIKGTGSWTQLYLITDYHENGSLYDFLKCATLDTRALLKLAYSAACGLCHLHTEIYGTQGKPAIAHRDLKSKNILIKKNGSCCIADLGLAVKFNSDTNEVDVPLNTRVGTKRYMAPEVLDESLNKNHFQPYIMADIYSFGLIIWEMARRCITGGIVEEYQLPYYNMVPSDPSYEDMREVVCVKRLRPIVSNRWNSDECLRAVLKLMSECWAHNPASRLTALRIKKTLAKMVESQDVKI

Kd [1] | Kd [2] | Kd [3] | Kd [4] | Kd (Midasin) | Kd [5] | Kd [6] | Kd [7] | Kd [8] | Kd [9] | Kd [10] | Kd [11] | Kd [12] | SMILES
> 30 µM (inactive) | > 30 µM (inactive) | > 30 µM (inactive) | > 30 µM (inactive) | > 30 µM (inactive) | > 30 µM (inactive) | > 30 µM (inactive) | > 30 µM (inactive) | > 30 µM (inactive) | > 30 µM (inactive) | > 30 µM (inactive) | > 30 µM (inactive) | > 30 µM (inactive) | CC[C@@](C)(Nc1ccnc(-c2c[nH]c3ncccc23)n1)C(=O)NCC(F)(F)F [DECERNOTINIB]
> 30 µM (inactive) | 2.6 µM (active) | > 30 µM (inactive) | > 30 µM (inactive) | > 30 µM (inactive) | > 30 µM (inactive) | > 30 µM (inactive) | > 30 µM (inactive) | > 30 µM (inactive) | > 30 µM (inactive) | > 30 µM (inactive) | > 30 µM (inactive) | > 30 µM (inactive) | CCc1cc2c(cc1N1CCC(N3CCOCC3)CC1)C(C)(C)c1[nH]c3cc(C#N)ccc3c1C2=O [ALECTINIB]
> 30 µM (inactive) | > 30 µM (inactive) | > 30 µM (inactive) | > 30 µM (inactive) | > 30 µM (inactive) | > 30 µM (inactive) | > 30 µM (inactive) | > 30 µM (inactive) | > 30 µM (inactive) | > 30 µM (inactive) | > 30 µM (inactive) | > 30 µM (inactive) | > 30 µM (inactive) | COc1cc2ncnc(Nc3ccc(F)c(Cl)c3)c2cc1NC(=O)/C=C/CN1CCCCC1 [DACOMITINIB ANHYDROUS]
> 30 µM (inactive) | > 30 µM (inactive) | > 30 µM (inactive) | > 30 µM (inactive) | > 30 µM (inactive) | > 30 µM (inactive) | > 30 µM (inactive) | > 30 µM (inactive) | > 30 µM (inactive) | > 30 µM (inactive) | > 30 µM (inactive) | > 30 µM (inactive) | > 30 µM (inactive) | C#Cc1cccc(Nc2ncnc3cc4c(cc23)OCCOCCOCCO4)c1 [ICOTINIB]
> 30 µM (inactive) | > 30 µM (inactive) | > 30 µM (inactive) | > 30 µM (inactive) | > 30 µM (inactive) | > 30 µM (inactive) | > 30 µM (inactive) | > 30 µM (inactive) | > 30 µM (inactive) | > 30 µM (inactive) | > 30 µM (inactive) | > 30 µM (inactive) | > 30 µM (inactive) | COc1ccc2c(OCc3nnc4ccc(-c5ccccc5)nn34)ccnc2c1 [AMG-208]
> 30 µM (inactive) | > 30 µM (inactive) | > 30 µM (inactive) | > 30 µM (inactive) | > 30 µM (inactive) | > 30 µM (inactive) | > 30 µM (inactive) | > 30 µM (inactive) | > 30 µM (inactive) | > 30 µM (inactive) | > 30 µM (inactive) | > 30 µM (inactive) | > 30 µM (inactive) | CC(C)(O)CC(=O)NCCn1ccc2ncnc(Nc3ccc(Oc4cccc(C(F)(F)F)c4)c(Cl)c3)c21 [TAK-285]
> 30 µM (inactive) | > 30 µM (inactive) | > 30 µM (inactive) | > 30 µM (inactive) | > 30 µM (inactive) | > 30 µM (inactive) | > 30 µM (inactive) | > 30 µM (inactive) | > 30 µM (inactive) | > 30 µM (inactive) | > 30 µM (inactive) | > 30 µM (inactive) | > 30 µM (inactive) | COc1cc2ncnc3c2cc1OCCCCCN(C)Cc1ccc(Br)cc1N3 [JNJ-26483327]
> 30 µM (inactive) | > 30 µM (inactive) | > 30 µM (inactive) | > 30 µM (inactive) | > 30 µM (inactive) | > 30 µM (inactive) | 0.209 µM (active) | > 30 µM (inactive) | > 30 µM (inactive) | > 30 µM (inactive) | > 30 µM (inactive) | > 30 µM (inactive) | > 30 µM (inactive) | COc1cc2nccc(Oc3ccc(NC(=O)C4(C(=O)Nc5ccc(F)cc5)CC4)cc3)c2cc1OC [CABOZANTINIB]
> 30 µM (inactive) | > 30 µM (inactive) | > 30 µM (inactive) | > 30 µM (inactive) | > 30 µM (inactive) | > 30 µM (inactive) | > 30 µM (inactive) | > 30 µM (inactive) | > 30 µM (inactive) | > 30 µM (inactive) | > 30 µM (inactive) | > 30 µM (inactive) | > 30 µM (inactive) | Cn1c(=O)c(F)c(Nc2ccc(I)cc2F)c2c(=O)n(C[C@@H](O)CO)cnc21 [TAK-733]

SMILES | Kd [1] | Kd [2] | Kd [3] | Kd [4] | Kd (Midasin) | Kd [5] | Kd [6] | Kd [7] | Kd [8] | Kd [9] | Kd [10] | Kd [11] | Kd [12]
COCCN1CCN(Cc2ccc(-c3n[nH]c4c3C(=O)c3c(NC(=O)NN5CCOCC5)cccc3-4)cc2)CC1 [RGB-286638] | 0.763 µM (active) | > 30 µM (inactive) | 0.008 µM (active) | > 30 µM (inactive) | > 30 µM (inactive) | > 30 µM (inactive) | > 30 µM (inactive) | > 30 µM (inactive) | 0.127 µM | 0.154 µM (active) | > 30 µM (inactive) | > 30 µM (inactive) | > 30 µM (inactive)
Cc1c(Cn2c(C)nc3c(C(=O)O)cc(N4CCOCC4)cc32)cccc1C(F)(F)F [GSK-2636771] | > 30 µM (inactive) | > 30 µM (inactive) | > 30 µM (inactive) | > 30 µM (inactive) | > 30 µM (inactive) | > 30 µM (inactive) | > 30 µM (inactive) | > 30 µM (inactive) | > 30 µM (inactive) | > 30 µM (inactive) | > 30 µM (inactive) | > 30 µM (inactive) | > 30 µM (inactive)

Reference: ChEMBL document CHEMBL3991601, “The target landscape of clinical kinase drugs” (Science, 2017)
